Read-outs that look alike come from different tables or passages of the source.
Legend:
[1] = test system: Magnaporthe grisea (Pyricularia oryzae—PYRIOR); assay: microbe, parasite or virus in culture; assay type: cell-based; settings: Pyricularia oryzae, read-out: PYRIOR in vitro Growth Inhibition
[2] = test system: Rhizoctonia solani (RHIZSO); assay: microbe, parasite or virus in culture; assay type: cell-based; settings: Rhizoctonia solani, read-out: RHIZSO in vitro Growth Inhibition
[3] = test system: Mycosphaerella graminicola (Septoria tritici—SEPTTR); assay: In vitro fungal growth inhibition, Mycosphaerella graminicola (SEPTTR); assay type: cell-based; settings: Zymoseptoria tritici, read-out: SEPTTR in vitro Growth Inhibition
[4] = test system: Stagonospora nodorum (Leptosphaeria nodorum—LEPTNO); assay: In vitro fungal growth inhibition, Stagonospora nodorum (LEPTNO); assay type: cell-based; settings: Leptosphaeria, read-out: LEPTNO in vitro Growth Inhibition
[5] = test system: Ustilago maydis (USTIMA); assay: microbe, parasite or virus in culture; assay type: cell-based; settings: Mycosarcoma maydis, read-out: USTIMA in vitro Growth Inhibition
[6] = test system: Phytophthora infestans (PHYTIN); assay: microbe, parasite or virus in culture; assay type: cell-based; settings: Phytophthora infestans, read-out: PHYTIN in vitro Growth Inhibition
[7] = test system: Phytophthora infestans—PHYTIN; assay: whole plant or invertebrate; assay type: in vivo; settings: Phytophthora, in Solanum lycopersicum, 24 h, read-out: PHYTIN in vivo 1 Day Protectant
[8] = test system: Puccinia recondita—PUCCRT; assay: Brown Rust of Wheat, in vivo whole plant, 24 Hour Protectant; settings: for pest or weed control at 100 ppm: Puccinia, read-out: PUCCRT in vivo 1 Day Protectant
[9] = test system: Erysiphe graminis—ERYSGT; assay: Powdery Mildew of Wheat, in vivo whole plant, 24 Hour Protectant; settings: for pest or weed control at 100 ppm: Erysiphe, read-out: ERYSGT in vivo 1 Day Protectant
[10] = test system: Septoria tritici—SEPTTR; assay: Leaf Blotch of Wheat, in vivo whole plant, 24 Hour Protectant; settings: for pest or weed control at 100 ppm: Zymoseptoria tritici, 24 h, control of fungal infection vs untreated plants, read-out: SEPTTR in vivo 1 Day Protectant
[11] = test system: Leptosphaeria nodorum—LEPTNO; assay: Glume Blotch of Wheat, in vivo whole plant, 24 Hour Protectant; settings: for pest or weed control at 100 ppm: Leptosphaeria, read-out: LEPTNO in vivo 1 Day Protectant
[12] = wheat plants sprayed at 100 ppm, inoculated after 24 hours, control of fungal infection vs untreated plants
[13] = wheat plants sprayed at 100 ppm, inoculated after 24 hours
[14] = 100 ppm spray, wheat, 24 hour protectant, control of fungal infection vs untreated plants
[15] = 100 ppm spray, wheat, 24 hour protectant
[16] = 100 ppm spray, wheat, 24 hour protectant, % control of fungal infection vs untreated plants

Structure (SMILES) | inhibition at 25 ppm [1] | inhibition at 25 ppm [2] | inhibition at 25 ppm [5] | inhibition at 25 ppm [6] | pest or weed control at 100 ppm [7] | inhibition at 25 ppm ([3]; 25 ppm in growth medium) | inhibition at 25 ppm ([4]; 25 ppm in growth medium) | pest or weed control at 100 ppm [8, 14] | pest or weed control at 100 ppm [9, 14] | pest or weed control at 100 ppm [10, 15] | pest or weed control at 100 ppm [11, 14] | also measured
O=C(Nc1ccc(Oc2cccc(C(F)(F)F)c2)cc1)c1nc(Br)ccc1O [Compound 498] | < 80% | < 80% | < 80% | < 80% | < 25% |  |  |  |  |  |  | inhibition at 25 ppm ([3]; 25 ppm in the growth medium): < 80%; inhibition at 25 ppm ([4]; 25 ppm in the growth medium): < 80%; pest or weed control at 100 ppm [8, 12]: 25 to 74%; pest or weed control at 100 ppm [9, 12]: < 25%; pest or weed control at 100 ppm [10, 13]: 25 to 74%; pest or weed control at 100 ppm [11, 12]: < 25%
COc1ccnc(C(=O)N[C@H]2COC(=O)[C@H](Cc3ccccc3)[C@@H](OC(=O)/C=C(\C)CCC=C(C)C)[C@H](C)OC2=O)c1O [Compound 396] | > 80% | < 80% | < 80% | < 80% | < 25% | > 80% | > 80% | 25 to 74% | < 25% | 25 to 74% | 25 to 74% | 
COc1ccnc(C(=O)N[C@H]2COC(=O)[C@H](Cc3ccccc3)[C@@H](O)[C@H](C)OC2=O)c1O [Compound 383] | < 80% | < 80% | < 80% | < 80% | < 25% | < 80% | < 80% | 25 to 74% | < 25% | < 25% | < 25% | 
COc1ccnc(C(=O)Nc2ccc(Oc3ccc(C(F)(F)F)cc3)cc2)c1O [Compound 425, 3-HYDROXY-4-METHOXY-N-(4-(4-TRIFLUOROMETHYLPHENOXY)PHENYL)-PYRIDINE-2-CARBOXAMIDE] | > 80% | > 80% | < 80% | < 80% | 25 to 74% | > 80% | > 80% | 25 to 74% | < 25% | 25 to 74% | < 25% | 
COc1ccnc(C(=O)N[C@H]2COC(=O)[C@H](Cc3ccccc3)[C@@H](OC(=O)C(C)C)[C@H](C)OC2=O)c1OC(=O)Cc1ccccc1 [Compound 648] | > 80% | < 80% | < 80% | < 80% | < 25% |  |  |  |  |  |  | inhibition at 25 ppm [3]: < 80%; inhibition at 25 ppm [4]: < 80%; PUCCRT in vivo 1 Day Protectant ([8]; in vivo): + +; ERYSGT in vivo 1 Day Protectant ([9]; in vivo): + +; SEPTTR in vivo 1 Day Protectant ([10]; in vivo): + +; LEPTNO in vivo 1 Day Protectant ([11]; in vivo): + +
COc1ccnc(C(=O)NC(COC(=O)CC(C)OC(=O)C(C)C)C(=O)OC(C)C)c1O (stereo not drawn) [Compound 352] | < 80% | < 80% | < 80% | < 80% | < 25% | < 80% | < 80% | 25 to 74% | < 25% | < 25% | < 25% | 
COc1ccnc(C(=O)Nc2ccc(C(=O)c3ccc(C(F)(F)F)cc3)cc2)c1O [Compound 406] | < 80% | < 80% | < 80% | < 80% | < 25% | < 80% | < 80% | < 25% | 25 to 74% | 25 to 74% | 25 to 74% | 
COc1ccnc(C(=O)N[C@H]2COC(=O)[C@H](Cc3ccccc3)[C@@H](OC(=O)C(C)C)[C@H](C)OC2=O)c1OC(=O)c1ccco1 [Compound 673] | < 80% | < 80% | < 80% | < 80% | < 25% | < 80% | < 80% |  |  |  |  | PUCCRT in vivo 1 Day Protectant [8, 16]: + +; pest or weed control at 100 ppm [9, 16]: < 25%; SEPTTR in vivo 1 Day Protectant [10, 16]: + +; LEPTNO in vivo 1 Day Protectant [11, 16]: + +
CCCCCCCCCCCCC(=O)O[C@H]1[C@H](C)OC(=O)[C@@H](NC(=O)c2nccc(OC)c2O)COC(=O)[C@@H]1Cc1ccccc1 [Compound 397] | < 80% | < 80% | < 80% | < 80% | < 25% | < 80% | < 80% | 25 to 74% | < 25% | 25 to 74% | 25 to 74% | 
CO/N=C(/c1ccc(NC(=O)c2nccc(OC)c2O)cc1)c1ccc(C(F)(F)F)cc1 [Compound 409] | > 80% | < 80% | < 80% | > 80% | 25 to 74% | > 80% | > 80% | 25 to 74% | 25 to 74% | 25 to 74% |  | LEPTNO in vivo 1 Day Protectant [11, 14]: + +
COc1ccnc(C(=O)Nc2ccc(C(=O)Oc3ccc(C(F)(F)F)cc3)cc2)c1O [Compound 452] | < 80% | < 80% | < 80% | < 80% | < 25% | < 80% | < 80% | < 25% | < 25% | 25 to 74% | 25 to 74% | 
COc1ccnc(C(=O)NC(COC(=O)C(Cc2ccccc2)C(C)OC(=O)C(C)C)C(=O)OC(C)C)c1O (stereo not drawn) [Compound 355] | < 80% | < 80% | < 80% | < 80% | < 25% | < 80% | < 80% | 25 to 74% | < 25% | < 25% | < 25% | 
O=C(NC(Cc1ccccc1)c1ccccc1)c1nc(Br)ccc1O (stereo not drawn) [Compound 491] | < 80% | < 80% | < 80% | > 80% | < 25% |  |  |  |  |  |  | inhibition at 25 ppm ([3]; 25 ppm in the growth medium): < 80%; inhibition at 25 ppm ([4]; 25 ppm in the growth medium): < 80%; pest or weed control at 100 ppm [8, 12]: < 25%; pest or weed control at 100 ppm [9, 12]: < 25%; pest or weed control at 100 ppm [10, 13]: < 25%; pest or weed control at 100 ppm [11, 12]: < 25%
COc1ccnc(C(=O)Nc2cc(C)c(OC(=O)c3ccc(C(F)(F)F)cc3)c(C)c2)c1O [Compound 457] | < 80% | < 80% | < 80% | < 80% | < 25% | < 80% | > 80% | < 25% | < 25% | 25 to 74% | < 25% | 
COc1ccnc(C(=O)NC(COC(=O)C(Cc2ccccc2)C(C)O[Si](C)(C)C(C)(C)C)C(=O)OC(C)C)c1O (stereo not drawn) [Compound 357] | < 80% | < 80% | < 80% | < 80% | < 25% |  |  |  | < 25% | < 25% | 25 to 74% | inhibition at 25 ppm [3]: < 80%; inhibition at 25 ppm [4]: < 80%; PUCCRT in vivo 1 Day Protectant [8, 14]: + +

Reference: patent US6706740B2, “Fungicidal heterocyclic aromatic amides and their compositions, methods of use and preparation” (Dow AgroSciences LLC, priority 1999, dated 2004)
